Assay results reported in US20170305922A1, “CARM1 INHIBITORS AND USES THEREOF” (Epizyme, Inc., priority 2014, published 2017).

How the values were obtained:
[1] = test system: asymmetric di-methyl PABP1 in RKO cells; assay: RKO methylation assay: In Cell Western (ICW) for asymmetric di-methyl PABP1 (PABP1me2a); conditions: Cellular-based (PABP1me2a) ICW (In Cell Western) assay
Text: RKO adherent cells were purchased from ATCC (American Type Culture Collection), Manassas, Va., USA. DMEM/Glutamax medium, penicillin-streptomycin, heat inactivated fetal bovine serum, 0.05% trypsin and D-PBS were purchased from Life Technologies, Grand Island, N.Y., USA. Odyssey blocking buffer, 800CW goat anti-rabbit IgG (H+L) antibody, and Licor Odyssey infrared scanner were purchased from Licor Biosciences, Lincoln, Nebr., USA. Asymmetric di-methyl PABP1 antibody was purchased from Cell Signaling Technology, Danvers, Mass., USA. Methanol was purchased from VWR, Franklin, Mass., USA. 10% Tween 20 was purchased from KPL, Inc., Gaithersburg, Md., USA. Paraformaldehyde (PFA) was purchased from EM Sciences. DRAQ5 was purchased from Biostatus Limited, Leicestershire, UK.
RKO adherent cells were maintained in growth medium (DMEM/Glutamax medium supplemented with 10% v/v heat inactivated fetal bovine serum and 100 units/mL penicillin-streptomycin) and cultured at 37° C. under 5% CO2.
Cell treatment, In Cell Western (ICW) for detection of asymmetric di-methyl PABP1 and DNA content: RKO cells were seeded in assay medium at a concentration of 30,000 cells per mL to a poly-D-lysine coated 384 well culture plate (BD Biosciences 356697) with 50 μL per well. Compound (100 nL) from a 96-well source plate was added directly to 384 well cell plate. Plates were incubated at 37° C., 5% CO2 for 48 hours. After two days of incubation, plates were brought to room temperature outside of the incubator for ten minutes and blotted on paper towels to remove cell media. Cells were fixed for 20 minutes at room temperature by adding 50 ul of 8% PFA followed by aspiration of supernatant with the Biotek EL406 plate washer. Cells were then permeabilized by addition of 50 μL of ice cold 100% methanol directly to each well and incubated for 30 min at room temperature. After 30 min, plates were transferred to a Biotek EL406 plate washer and washed 2 times with 100 μL per well of wash buffer (1×PBS). Next 60 μL per well of Odyssey blocking buffer (Odyssey Buffer with 0.1% Tween 20 (v/v)) were added to each plate and incubated 1 hour at room temperature. Blocking buffer was removed and 20 μL per well of primary antibody was added (asymmetric-methyl PABP1) diluted 1:400 in Odyssey buffer with 0.1% Tween 20 (v/v)) and plates were incubated overnight (16 hours) at 4° C. Plates were washed 5 times with 100 μL per well of wash buffer. Next 20 μL per well of secondary antibody was added (1:800 800CW goat anti-rabbit IgG (H+L) antibody, 1:2000 DRAQ5 in Odyssey buffer with 0.1% Tween 20 (v/v)) and incubated for 1 hour at room temperature. The plates were washed 5 times with 100 μL per well wash buffer then 2 times with 100 μL per well of water. Plates were allowed to dry at room temperature then imaged on the Licor Odyssey machine which measures integrated intensity at 700 nm and 800 nm wavelengths. Both 700 and 800 channels were scanned.
First, the ratio for each well was determined by:
Each plate included fourteen control wells of DMSO only treatment (minimum inhibition) as well as fourteen control wells for maximum inhibition treated with 20 μM of a reference compound. The average of the ratio values for each control type was calculated and used to determine the percent […] for each test well in the plate. Reference compound was serially diluted three-fold in DMSO for a total of nine test concentrations, beginning at 20 μM.
Percent inhibition was determined and IC50 curves were generated using triplicate wells per concentration of compound.

Human CARM1 (PRMT4) = target: T1, Human CARM1 (PRMT4) (Homo sapiens, UniProt Q86X55); assay: CARM1 enzyme assay on peptide substrates (3H-SAM Flashplate); conditions: Biochemical assay; CARM1 0.25 nM, 3H-SAM 30 nM, peptide 250 nM; read-out: Biochem IC50
T1 construct: Flag-CARM1-His was eluted with 200 ug/ml FLAG peptide in buffer A; made in house; host or cells: HEK 293F cells infected with recombinant baculovirus (pFastBacMam)
T1 sequence (Q86X55 1-585 isoform Q86X55-1): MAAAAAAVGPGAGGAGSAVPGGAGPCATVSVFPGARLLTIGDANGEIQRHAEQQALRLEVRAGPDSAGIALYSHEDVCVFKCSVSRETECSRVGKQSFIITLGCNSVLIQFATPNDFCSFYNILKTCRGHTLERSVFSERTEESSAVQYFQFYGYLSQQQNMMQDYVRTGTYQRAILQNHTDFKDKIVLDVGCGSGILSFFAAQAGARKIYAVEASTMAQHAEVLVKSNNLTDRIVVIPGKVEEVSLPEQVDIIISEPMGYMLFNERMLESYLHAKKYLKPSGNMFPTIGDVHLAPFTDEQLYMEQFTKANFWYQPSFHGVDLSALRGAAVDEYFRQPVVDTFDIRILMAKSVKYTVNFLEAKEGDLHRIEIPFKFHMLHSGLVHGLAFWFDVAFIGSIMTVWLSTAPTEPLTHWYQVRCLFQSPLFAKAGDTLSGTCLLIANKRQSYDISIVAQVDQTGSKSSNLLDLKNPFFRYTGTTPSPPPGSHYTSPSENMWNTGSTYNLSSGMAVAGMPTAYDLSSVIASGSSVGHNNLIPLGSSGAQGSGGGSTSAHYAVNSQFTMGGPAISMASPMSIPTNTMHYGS
Text: S-adenosylmethionine (SAM), S-adenosylhomocysteine (SAH), bicine, Tween20, dimethylsulfoxide (DMSO), bovine skin gelatin (BSG), sodium butyrate and Tris(2-carboxyethyl)phosphine hydrochloride solution (TCEP) were purchased from Sigma-Aldrich at the highest level of purity possible. ^3H-SAM was purchase from American Radiolabeled Chemicals with a specific activity of 80 Ci/mmol. 384-well streptavidin Flashplates were purchased from PerkinElmer.
Peptide representative of human histone H3 residues 16-30 was synthesized with an N-terminal linker-affinity tag motif and a C-terminal amide cap by 21st Century Biochemicals. […] The sequence was Biot-Ahx-[…]-amide and contained a monomethylated arginine at position 26 (SEQ ID NO.:1).
The gene sequence encoding isoform1 containing a deletion of amino acids 539-561 was amplified subsequently and subcloned into pFastBacMam (Viva Biotech).
Recombinant baculovirus were generated according to Bac-to-Bac kit instructions (Life Technologies). Protein over-expression was accomplished by infecting exponentially growing HEK 293F cell culture at 1.3×10^6 cell/ml with virus (MOI=10) in the presence of 8 mM sodium butyrate. Infections were carried out at 37° C. for 48 hours, harvested by centrifugation, and stored at −80° C. for purification.
Column was washed with 500 mM NaCl in buffer A and Flag-CARM1-His was eluted with 200 ug/ml FLAG peptide in buffer A. Pooled fractions were dialyzed in 20 mM Tris, 150 mM NaCl, 5% glycerol and 1 mM DTT, pH 7.8.
The assays were all performed in a buffer consisting of 20 mM Bicine (pH=7.6), 1 mM TCEP, 0.005% BSG, and 0.002% Tween 20, prepared on the day of use. Compounds in 100% DMSO (1 ul) were spotted into a polypropylene 384-well V-bottom plates (Greiner) using a Platemate Plus outfitted with a 384-channel head (Thermo Scientific). DMSO (1 ul) was added to Columns 11, 12, 23, 24, rows A-H for the maximum signal control and 1 ul of SAH, a known product and inhibitor of CARM1, was added to columns 11, 12, 23, 24, rows I-P for the minimum signal control. A cocktail (40 ul) containing the CARM1 enzyme was added by Multidrop Combi (Thermo-Fisher). The compounds were allowed to incubate with CARM1 for 30 min at room temperature, then a cocktail (10 ul) containing ^3H-SAM and peptide was added to initiate the reaction (final volume=51 ul). The final concentrations of the components were as follows: CARM1 was 0.25 nM, ^3H-SAM was 30 nM, peptide was 250 nM, SAH in the minimum signal control wells was 1 mM, and the DMSO concentration was 2%. The assays were stopped by the addition of non-radiolabeled SAM (10 ul) to a final concentration of 300 uM, which dilutes the ^3H-SAM to a level where its incorporation into the peptide substrate is no longer detectable. 50 ul of the reaction in the 384-well polypropylene plate was then transferred to a 384-well Flashplate and the biotinylated peptides were allowed to bind to the streptavidin surface for at least 1 hour before being washed once with 0.1% Tween20 in a Biotek ELx405 plate washer. The plates were then read in a PerkinElmer TopCount plate reader to measure the quantity of ^3H-labeled peptide bound to the Flashplate surface, measured as disintegrations per minute (dpm) or alternatively, referred to as counts per minute (cpm).
where dpm=disintegrations per minute, cmpd=signal in assay well, and min and max are the respective minimum and maximum signal controls.
where top and bottom are the normally allowed to float, but may be fixed at 100 or 0 respectively in a 3-parameter fit. The Hill Coefficient normally allowed to float but may also be fixed at 1 in a 3-parameter fit. Y is the % inhibition and X is the compound concentration.

| Structure (SMILES) | IC50 ([1]; Homo sapiens, RKO, 48 h) [nM] | IC50 (Human CARM1 (PRMT4)) [nM] | IC50 ([1]; 48 hours) [nM] |
| --- | --- | --- | --- |
| CNC[C@@H](O)COc1ccc(Cl)c(-c2nc(-c3c(Br)cnn3C)c(C)c(N3CC4=C(CN(C(=O)OC)C4)C3)n2)c1 [Example 336] | 32.1 | 3.03 |  |
| CNC[C@@H](O)COc1ccc(Cl)c(-c2nc(-c3c(C)noc3C)c(C)c(N3CC4(C3)CN([C@H](C)C(F)(F)F)C4)n2)c1 [Example 330] | 40.9 | 4.83 |  |
| CNC[C@@H](O)COc1ccc(Cl)c(-c2nc(-c3c(C)c(Cl)nn3C)c(C)c(N3Cc4cnc(OCC(F)F)nc4C3)n2)c1 [Example 156] | 31 | 3.5 |  |
| CNC[C@@H](O)COc1ccc(Cl)c(-c2nc(-c3c(C)noc3C)c(C)c(N3CC4(CN(C(=O)OC)C4)C3)n2)c1 [Example 43] | 84 | 10 |  |
| CNC[C@@H](O)COc1ccc(Cl)c(-c2nc(-c3c(C)noc3C)c(C)c(N3CC4(CCC(C(=O)N5CCC5)CC4)C3)n2)c1 [Example 174] | 271 | 3.9 |  |
| CNC[C@@H](O)COc1ccc(Cl)c(-c2nc(-c3c(C)noc3C)c(C)c(N3CC4(C3)CC(O)(C(F)F)C4)n2)c1 [Example 218] | 419 | 6 |  |
| CCc1onc(C)c1-c1nc(-c2cc(OC[C@H](O)CNC)ccc2Cl)nc(N2Cc3cnc(N4CCC4)nc3C2)c1C [Example 175] | 13 | 1.7 |  |
| CNC[C@@H](O)COc1ccc(Cl)c(-c2nc(-c3c(C)noc3C)c(C)c(N3CC4(CC(F)C4)C3)n2)c1 [Example 140] | 241 | 4.2 |  |
| CNC[C@@H](O)COc1ccc(Cl)c(-c2nc(-c3c(C)c(Br)nn3C)c(C)c(N3CC4(CN(CC(F)(F)F)C4)C3)n2)c1 [Example 305] |  | 8.35 | 27.7 |
| CNC[C@@H](O)COc1ccc(Cl)c(-c2nc(-c3c(C)noc3C)c(C)c(N3CC4(CCN(CC(F)(F)F)C4)C3)n2)c1 [Example 45] | 40 | 11.9 |  |
| CNC[C@@H](O)COc1ccc(Cl)c(-c2nc(-c3c(C)c(Cl)nn3C)c(C)c(N3Cc4cccnc4C3)n2)c1 [Example 84] | 28 | 1.6 |  |
| CNC[C@@H](O)COc1ccc(Cl)c(-c2nc(-c3c(C)noc3C)c(C)c(N3C[C@@H]4C[C@H]3CN4C(=O)OC)n2)c1 [Example 104] | 368 | 10.8 |  |

Results, then the compound that gave them:

| IC50 ([1]; Homo sapiens, RKO, 48 h) [nM] | IC50 (Human CARM1 (PRMT4)) [nM] | IC50 ([1]; 48 hours) [nM] | Structure (SMILES) |
| --- | --- | --- | --- |
| 257 | 13.4 |  | CNC[C@@H](O)COc1ccc(Cl)c(-c2nc(CCC3CN(C(=O)OC)C3)c(C)c(-c3c(C)noc3C)n2)c1 [Example 121] |
| 130 | 8.1 |  | CNC[C@@H](O)COc1ccc(Cl)c(-c2nc(-c3cnn(C4CC4)c3)c(C)c(-c3c(C)noc3C)n2)c1 [Example 103] |
| 346 | 5.1 |  | CNC[C@@H](O)COc1ccc(Cl)c(-c2nc(-c3c(C)noc3C)c(C)c(N3CC(F)(C(=O)N(C)C)C3)n2)c1 [Example 185] |
| 51.9 | 4.11 |  | CNC[C@@H](O)COc1ccc(Cl)c(-c2nc(-c3c(C)noc3C)c(C)c(N3CC4(CN(CCC(F)(F)F)C4)C3)n2)c1 [Example 264] |
| 17.6 | 2.94 |  | CNC[C@@H](O)COc1ccc(Cl)c(-c2nc(-c3c(Cl)cnn3C)c(C)c(N3Cc4cnc(N5CC(OC)C5)nc4C3)n2)c1 [Example 299] |
| 157 | 0.6 |  | CNC[C@@H](O)COc1ccc(Cl)c(-c2nc(-c3c(C)noc3C)c(C)c(N3CC4=C(CN(C)CC4)C3)n2)c1 [Example 237] |
| 234 | 3.86 |  | CNC[C@@H](O)COc1ccc(Cl)c(-c2nc(-c3c(C)noc3C)c(C)c(N3CC4(CCC4OC)C3)n2)c1 (stereo partly drawn) [Example 288] |
| 171 | 0.4 |  | CNC[C@@H](O)COc1ccc(Cl)c(-c2nc(-c3c(C)noc3C)c(C)c(N3CC4=C(C3)CN(c3nc(-c5cc(OC[C@H](O)CNC)ccc5Cl)nc(-c5c(C)noc5C)c3C)C4)n2)c1 [Example 198] |
| 111 | 11 |  | CNC[C@@H](O)COc1ccc(Cl)c(-c2nc(-c3c(C)noc3C)c(C)c(N3CC4(CCN(C5COC5)CC4)C3)n2)c1 [Example 64] |
